Laboratory results reported in patent US12459951B2, “Compounds that interact with RAS superfamily proteins for treatment of cancers, inflammatory diseases, rasopathies, and fibrotic disease” (SHY Therapeutics, LLC, priority 2022, dated 2025).

Legend:
[1] = target: T1, Rac-1 (Homo sapiens, UniProt P63000); assay: Ras GTP Binding Domain Inhibition Assay (Ras Superfamily Assay); settings: read-out: Rac-1: % inh.
T1 construct: made in house
From the text: (§1) Biological Example 3: Ras GTP Binding Domain Inhibition Assay
(§2) The assays described in Example 3 are collectively referred to as the “Ras Superfamily Assay” throughout this application.
(§3) A Ras Superfamily Activity Assay (as disclosed in International Application No. PCT/US2018/038613, filed Jun. 20, 2018, which is incorporated by reference in its entirety) was used as a specific assay to evaluate compounds against the following for the following Ras Superfamily proteins: KRas wild type, KRas Q61H mutant, KRas G12C mutant, KRas G12D mutant, Rac-1, and Rho-A.
(§4) • 25 mM Tris-HCl, pH 7.4 • 27 mM KCl • 137 mM NaCl • 1 mM MgCl2 • 1 mM DTT Buffer-II: • 50 mM Tris-HCl, pH 7.0 • 1 mM MgCl2 • 1 mM DTT
(§5) The small GTPases proteins: KRas wild type. KRas Q61H mutant, KRas G12C mutant, KRas G12D mutants, Rac-1, and Rho-A were expressed as His-tagged proteins. In addition, the Guanosine nucleotide Exchange Factor (GEF) Sos protein (residues 556-1049) was expressed as a His-tagged protein. In cells, the guanine nucleotide exchange factor Sos protein promotes activation of Ras proteins by stimulating an exchange of GDP for GTP. The inclusion of Sos to the Ras GTP binding domain inhibition assay may be considered as an alternative representation of physiological cellular conditions for evaluating the inhibitory activity of some of the tested small molecules.
(§6) For the assay, all purified small GTPases proteins were diluted in Buffer-I or Buffer-II to a final concentration of 10-30 μg/mL. 200 μL of each diluted protein was added to a nickel-coated 96-well plate and incubated overnight at 4° C. Then the protein solution was discarded and 200 μL of Buffer-I or Buffer-II was added to each well in the presence of 1% DMSO. Compounds to be tested were added to the protein-coated wells at final concentration of 20 μM, and incubated for 3 hours at room temperature with and without 10-30 μg/mL of Sos added to the final hour of the incubation. When performing IC50 measurements a serial dilution of all tested concentrations was added. Then Cy3-GTP or Cy5-GTP was added to each well to a final concentration of 100 nM. The labeled GTP was incubated for 45 minutes at room temperature. Following GTP incubation, wells were washed 3× in Buffer-I or Buffer-II and 200 μL of Buffer-I or Buffer-II was added to each well. Following washes, the amount of bound labeled-GTP was measured using a SpectraMax M3 (Molecular Devices).

[2] = system: KRas wild type; assay: as above; settings: 20 μM compound
From the text: as §1, §2, §3, §4, §5, §6

[3] = system: KRas G12D mutant; assay: as above; settings: 20 μM compound
From the text: as §1, §2, §3, §4, §5, §6

[4] = system: TNF-alpha; assay: TNF-alpha Quantification Assay (ELISA), LPS-stimulated RAW 264.7; type: cell-based; settings: Mus musculus, RAW264.7; at 10 μM; read-out: TNFα: % inh.
[5] = system: IL6; assay: IL-6 Quantification Assay (ELISA), LPS-stimulated RAW 264.7; type: cell-based; design: inhibition: dose or concentration left out as unconfirmed; settings: Mus musculus, RAW264.7; read-out: IL-6: % inh.

- inhibition at 20 µM [1]: 1 to 25%
- KRas wild type + SOS: % inh. ([2]; with SOS): A (A = 1-25% inhibition)
- KRas wild type: % inh. ([2]; without SOS): A (A = 1-25% inhibition)
- KRas G12D mutant + SOS: % inh. ([3]; with SOS): A (A = 1-25% inhibition)
- KRas G12D mutant: % inh. ([3]; without SOS): A (A = 1-25% inhibition)
SMILES: COC(=O)c1c(-c2ccn(C)n2)cn2nc(-c3nccn3C)nc(N[C@H]3CC[C@H](OC)C3)c12 (racemic) [Compound 180, Methyl 4-(((1S,3S)-3-methoxycyclopentyl)amino)-2-(1-methyl-1H-imidazol-2-yl)-6-(1-methyl-1H-pyrazol-3-yl)pyrrolo[2,1-f][1,2,4]triazine-5-carboxylate]
- inhibition at 10 µM [4]: 25 to 49%
- inhibition [5]: 50 to 74%
